We go through five molecules from ChEMBL document CHEMBL1126912 (J Med Chem, 1993).

The Ki is the dissociation constant of the complex between target and ligand, obtained from inhibition or displacement. Lower therefore signals higher affinity.

Experiment [1] concerns the target T1, Muscarinic acetylcholine receptor M2 (Homo sapiens, UniProt P08172).
T1 sequence (P08172 whole entry): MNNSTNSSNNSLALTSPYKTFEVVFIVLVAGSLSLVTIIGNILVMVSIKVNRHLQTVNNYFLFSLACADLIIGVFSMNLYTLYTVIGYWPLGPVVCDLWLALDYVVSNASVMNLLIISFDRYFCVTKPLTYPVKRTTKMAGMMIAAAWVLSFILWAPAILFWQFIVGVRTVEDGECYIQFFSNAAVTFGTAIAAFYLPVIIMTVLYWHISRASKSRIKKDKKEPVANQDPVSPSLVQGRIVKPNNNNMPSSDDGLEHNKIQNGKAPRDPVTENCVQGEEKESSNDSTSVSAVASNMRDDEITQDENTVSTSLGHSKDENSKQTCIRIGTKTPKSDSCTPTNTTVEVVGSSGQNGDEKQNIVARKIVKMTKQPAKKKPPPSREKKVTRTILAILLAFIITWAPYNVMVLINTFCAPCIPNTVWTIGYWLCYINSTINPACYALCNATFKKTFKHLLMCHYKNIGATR
In words: Antagonistic activity measured in isolated guinea pig left atrium (M2 receptor). The experiment is classed as functional, tissue-based, Cavia porcellus, Cardiac atrium. Conditions: target entry is the homologue from another species; read-out: pA2 (converted).

For experiment [2], the target named is Muscarinic acetylcholine receptor M3 (Cavia porcellus, UniProt Q8VH26). As to the kind of experiment: Antagonistic activity measured in isolated guinea pig […] (M3 receptor). The format is functional, tissue-based. The following applies: read-out: pA2 (converted).
Muscarinic acetylcholine receptor M3 (Cavia porcellus, UniProt Q8VH26), sequence (Q8VH26 whole entry): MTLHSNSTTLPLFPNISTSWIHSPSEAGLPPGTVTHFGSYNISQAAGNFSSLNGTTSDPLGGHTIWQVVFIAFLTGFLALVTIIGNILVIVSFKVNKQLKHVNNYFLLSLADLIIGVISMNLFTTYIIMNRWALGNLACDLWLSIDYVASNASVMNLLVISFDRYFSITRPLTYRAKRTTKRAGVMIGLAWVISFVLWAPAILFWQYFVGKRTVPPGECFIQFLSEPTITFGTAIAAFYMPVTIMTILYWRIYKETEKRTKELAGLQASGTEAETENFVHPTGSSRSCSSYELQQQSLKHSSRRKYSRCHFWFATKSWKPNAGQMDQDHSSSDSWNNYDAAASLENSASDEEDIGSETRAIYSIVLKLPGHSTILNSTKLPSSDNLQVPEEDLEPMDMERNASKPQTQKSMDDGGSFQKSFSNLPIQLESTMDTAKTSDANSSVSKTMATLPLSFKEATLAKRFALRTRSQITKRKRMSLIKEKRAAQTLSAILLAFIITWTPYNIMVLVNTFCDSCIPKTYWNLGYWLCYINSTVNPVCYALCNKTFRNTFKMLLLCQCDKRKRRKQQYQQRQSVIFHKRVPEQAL
In experiment [3] the test system is Muscarinic acetylcholine receptors M2 & M3 (Cavia porcellus). As to the kind of experiment: Selectivity ratio between atrium (M2) and ileum (M3) was determined.
Experiment [4] addresses Muscarinic acetylcholine receptor M3 (Rattus norvegicus, UniProt P08483). In words: Affinity constant measured against M3 muscarinic receptor in rat submaxillary gland. The format is tissue-based.
Experiment [5] deals with T2, Muscarinic acetylcholine receptor M4 (Rattus norvegicus, UniProt P08485).
T2 sequence (P08485 whole entry): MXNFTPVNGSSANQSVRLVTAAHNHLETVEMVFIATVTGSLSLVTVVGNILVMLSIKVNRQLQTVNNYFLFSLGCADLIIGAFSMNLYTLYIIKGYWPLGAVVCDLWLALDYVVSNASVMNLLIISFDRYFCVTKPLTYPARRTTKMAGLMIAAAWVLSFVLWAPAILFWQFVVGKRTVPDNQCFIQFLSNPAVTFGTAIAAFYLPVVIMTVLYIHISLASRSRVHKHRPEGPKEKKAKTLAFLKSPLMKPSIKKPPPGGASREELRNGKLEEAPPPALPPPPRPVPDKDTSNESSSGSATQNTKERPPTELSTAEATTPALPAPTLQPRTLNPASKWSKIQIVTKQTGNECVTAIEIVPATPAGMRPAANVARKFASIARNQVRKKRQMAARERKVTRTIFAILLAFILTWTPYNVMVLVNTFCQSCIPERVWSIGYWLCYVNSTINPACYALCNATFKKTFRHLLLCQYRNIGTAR
In words: Affinity constant measured against M4 muscarinic receptor rat NG108-15 cells. The format is cell-based.

Experiment [6] addresses T3, Muscarinic acetylcholine receptor M1 (Rattus norvegicus, UniProt P08482).
T3 sequence (P08482 whole entry): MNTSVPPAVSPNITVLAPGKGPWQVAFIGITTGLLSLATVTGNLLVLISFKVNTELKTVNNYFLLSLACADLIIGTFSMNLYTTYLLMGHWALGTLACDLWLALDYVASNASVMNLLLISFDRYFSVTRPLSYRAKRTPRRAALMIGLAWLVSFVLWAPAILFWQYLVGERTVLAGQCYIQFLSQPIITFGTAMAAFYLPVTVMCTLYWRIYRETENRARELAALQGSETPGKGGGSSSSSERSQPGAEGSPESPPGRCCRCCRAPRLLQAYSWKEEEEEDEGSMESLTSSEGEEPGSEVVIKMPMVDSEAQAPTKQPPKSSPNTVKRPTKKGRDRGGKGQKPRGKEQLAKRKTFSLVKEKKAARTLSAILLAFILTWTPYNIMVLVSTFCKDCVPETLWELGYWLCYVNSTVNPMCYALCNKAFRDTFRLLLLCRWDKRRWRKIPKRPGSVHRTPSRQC
As to the kind of experiment: Affinity constant measured against M1 muscarinic receptor in rat cortex.

Muscarinic acetylcholine receptor M3 (Rattus norvegicus, UniProt P08483), sequence (P08483 whole entry): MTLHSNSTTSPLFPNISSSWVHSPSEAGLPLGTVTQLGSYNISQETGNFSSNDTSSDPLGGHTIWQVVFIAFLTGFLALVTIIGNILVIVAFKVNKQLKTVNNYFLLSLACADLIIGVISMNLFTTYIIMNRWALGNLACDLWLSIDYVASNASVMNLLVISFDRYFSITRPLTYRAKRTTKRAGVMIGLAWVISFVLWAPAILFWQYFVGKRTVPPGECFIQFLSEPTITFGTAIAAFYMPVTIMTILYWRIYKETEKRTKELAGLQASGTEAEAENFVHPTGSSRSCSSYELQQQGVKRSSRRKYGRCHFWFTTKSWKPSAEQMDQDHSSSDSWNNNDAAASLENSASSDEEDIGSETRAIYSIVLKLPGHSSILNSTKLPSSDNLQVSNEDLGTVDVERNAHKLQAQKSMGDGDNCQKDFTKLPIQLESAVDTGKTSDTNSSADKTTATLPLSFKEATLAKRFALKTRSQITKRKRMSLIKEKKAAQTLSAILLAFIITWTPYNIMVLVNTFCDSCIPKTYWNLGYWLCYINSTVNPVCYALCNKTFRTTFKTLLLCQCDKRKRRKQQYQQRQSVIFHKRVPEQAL

For the molecule `COc1ccccc1CNCCCCCCN(C)CCCCCCCCN(C)CCCCCCNCc1ccccc1OC`, the Kb in experiment [1] is 0.0126 µM; in experiment [2], 0.603 µM. In addition, the Selectivity ratio in experiment [3] is 48.

As to `CN(CCCCCCCCN(C)CCCCCCNCC(=O)N1c2ccccc2C(=O)Nc2cccnc21)CCCCCCNCC(=O)N1c2ccccc2C(=O)Nc2cccnc21`, the Kb is 0.000724 µM in experiment [1] and 0.126 µM in experiment [2].

As for `CCN(CC)CCCCC1CCN(CC(=O)N2c3ccccc3C(=O)Nc3cccnc32)CC1`, in experiment [2], the Kb is 0.251 µM. Moreover, the Ki was 0.158 µM in experiment [4], 0.01 µM in experiment [5] and 0.0251 µM in experiment [6].

Take `CN(CCCCCCCCN(C)CCCCCCN(CC(=O)N1c2ccccc2C(=O)Nc2cccnc21)CC(=O)N1c2ccccc2C(=O)Nc2cccnc21)CCCCCCNCC(=O)N1c2ccccc2C(=O)Nc2cccnc21` [TRIPITRAMINE]: in experiment [2], the Kb is 0.282 µM. Further, the Ki in experiment [4] was 0.646 µM; in experiment [5] it was 0.0117 µM; in experiment [6] it was 0.0234 µM.

As for `COc1ccccc1CNCCCCCCNCCCCCCCCNCCCCCCNCc1ccccc1OC` [METHOCTRAMINE], in experiment [2], the Kb was 0.479 µM. Also, the Ki in experiment [4] is 1.1 µM; in experiment [5], 0.0263 µM.
